Test [1] deals with RON (human) (Homo sapiens, UniProt Q04912). Nature of the test: RON kinase AlphaScreen assay (Km of ATP). It counts as biochemical. The following applies: ATP at Km; at least duplicate experiments. The essentials: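 AlphaScreen with PT66 donor/acceptor beads, read after 1 h, detected phosphorylation of biotinylated poly(Glu,Tyr) by human RON. Enzyme-started reactions ran 30 min at room temperature with ATP at Km. Buffer was HEPES pH 7.4 with MgCl2, glycerol, vanadate and 1% DMSO.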

Test [2] deals with MET (human) (Homo sapiens, UniProt P08581). The test is described as follows: MET kinase AlphaScreen assay (Km of ATP). In kind it is biochemical. Particulars: ATP at Km; at least duplicate experiments. The procedure, abridged: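 AlphaScreen detection with PT66 beads (1 h) follows a 60 min room-temperature MET reaction. Substrate is 200 ng/μL biotinylated poly(Glu,Tyr), with ATP set at an enzyme-optimized concentration. Buffer is HEPES pH 7.4 with MgCl2, MnCl2 and 0.334 mM vanadate, compounds at 1% DMSO.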
A general note: In Alpha technology, singlet oxygen from a donor bead excites a nearby acceptor bead.

Counter-ions that a name gives are not always drawn.

Chain of MET (human) (P08581 25-1390): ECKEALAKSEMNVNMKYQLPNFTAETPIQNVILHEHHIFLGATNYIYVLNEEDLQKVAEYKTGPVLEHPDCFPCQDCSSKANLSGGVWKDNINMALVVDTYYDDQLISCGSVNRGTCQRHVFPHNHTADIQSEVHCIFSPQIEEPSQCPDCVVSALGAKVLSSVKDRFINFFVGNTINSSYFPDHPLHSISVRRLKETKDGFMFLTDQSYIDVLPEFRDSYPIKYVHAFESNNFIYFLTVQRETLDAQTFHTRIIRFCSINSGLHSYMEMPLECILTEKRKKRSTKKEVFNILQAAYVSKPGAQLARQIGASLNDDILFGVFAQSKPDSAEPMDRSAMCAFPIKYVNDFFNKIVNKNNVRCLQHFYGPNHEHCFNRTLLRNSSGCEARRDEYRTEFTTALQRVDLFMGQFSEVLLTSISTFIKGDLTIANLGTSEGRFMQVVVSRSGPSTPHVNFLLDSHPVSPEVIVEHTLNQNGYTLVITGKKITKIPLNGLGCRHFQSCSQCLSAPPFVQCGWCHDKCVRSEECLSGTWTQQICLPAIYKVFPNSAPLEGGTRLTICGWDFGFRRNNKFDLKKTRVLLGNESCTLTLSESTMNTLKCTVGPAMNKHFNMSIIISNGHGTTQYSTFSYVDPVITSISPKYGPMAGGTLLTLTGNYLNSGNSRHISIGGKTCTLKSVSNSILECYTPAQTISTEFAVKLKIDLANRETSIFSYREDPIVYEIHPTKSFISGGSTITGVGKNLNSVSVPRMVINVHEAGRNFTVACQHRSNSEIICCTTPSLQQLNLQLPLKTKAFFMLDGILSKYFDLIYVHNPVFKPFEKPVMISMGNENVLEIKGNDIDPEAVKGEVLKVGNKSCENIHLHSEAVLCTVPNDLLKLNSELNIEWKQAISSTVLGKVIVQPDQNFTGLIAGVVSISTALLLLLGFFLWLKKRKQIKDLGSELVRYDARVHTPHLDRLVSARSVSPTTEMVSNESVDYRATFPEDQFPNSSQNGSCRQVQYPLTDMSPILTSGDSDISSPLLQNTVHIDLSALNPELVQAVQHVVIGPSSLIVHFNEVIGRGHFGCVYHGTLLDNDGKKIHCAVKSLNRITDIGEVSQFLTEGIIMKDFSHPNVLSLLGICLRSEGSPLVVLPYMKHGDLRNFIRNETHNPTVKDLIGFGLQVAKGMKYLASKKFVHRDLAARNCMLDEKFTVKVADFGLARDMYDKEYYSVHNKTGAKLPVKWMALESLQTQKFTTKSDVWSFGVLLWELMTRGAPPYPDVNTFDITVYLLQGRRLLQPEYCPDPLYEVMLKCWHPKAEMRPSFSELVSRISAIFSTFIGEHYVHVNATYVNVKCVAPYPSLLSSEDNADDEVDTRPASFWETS
Chain of RON (human) (Q04912 25-1400): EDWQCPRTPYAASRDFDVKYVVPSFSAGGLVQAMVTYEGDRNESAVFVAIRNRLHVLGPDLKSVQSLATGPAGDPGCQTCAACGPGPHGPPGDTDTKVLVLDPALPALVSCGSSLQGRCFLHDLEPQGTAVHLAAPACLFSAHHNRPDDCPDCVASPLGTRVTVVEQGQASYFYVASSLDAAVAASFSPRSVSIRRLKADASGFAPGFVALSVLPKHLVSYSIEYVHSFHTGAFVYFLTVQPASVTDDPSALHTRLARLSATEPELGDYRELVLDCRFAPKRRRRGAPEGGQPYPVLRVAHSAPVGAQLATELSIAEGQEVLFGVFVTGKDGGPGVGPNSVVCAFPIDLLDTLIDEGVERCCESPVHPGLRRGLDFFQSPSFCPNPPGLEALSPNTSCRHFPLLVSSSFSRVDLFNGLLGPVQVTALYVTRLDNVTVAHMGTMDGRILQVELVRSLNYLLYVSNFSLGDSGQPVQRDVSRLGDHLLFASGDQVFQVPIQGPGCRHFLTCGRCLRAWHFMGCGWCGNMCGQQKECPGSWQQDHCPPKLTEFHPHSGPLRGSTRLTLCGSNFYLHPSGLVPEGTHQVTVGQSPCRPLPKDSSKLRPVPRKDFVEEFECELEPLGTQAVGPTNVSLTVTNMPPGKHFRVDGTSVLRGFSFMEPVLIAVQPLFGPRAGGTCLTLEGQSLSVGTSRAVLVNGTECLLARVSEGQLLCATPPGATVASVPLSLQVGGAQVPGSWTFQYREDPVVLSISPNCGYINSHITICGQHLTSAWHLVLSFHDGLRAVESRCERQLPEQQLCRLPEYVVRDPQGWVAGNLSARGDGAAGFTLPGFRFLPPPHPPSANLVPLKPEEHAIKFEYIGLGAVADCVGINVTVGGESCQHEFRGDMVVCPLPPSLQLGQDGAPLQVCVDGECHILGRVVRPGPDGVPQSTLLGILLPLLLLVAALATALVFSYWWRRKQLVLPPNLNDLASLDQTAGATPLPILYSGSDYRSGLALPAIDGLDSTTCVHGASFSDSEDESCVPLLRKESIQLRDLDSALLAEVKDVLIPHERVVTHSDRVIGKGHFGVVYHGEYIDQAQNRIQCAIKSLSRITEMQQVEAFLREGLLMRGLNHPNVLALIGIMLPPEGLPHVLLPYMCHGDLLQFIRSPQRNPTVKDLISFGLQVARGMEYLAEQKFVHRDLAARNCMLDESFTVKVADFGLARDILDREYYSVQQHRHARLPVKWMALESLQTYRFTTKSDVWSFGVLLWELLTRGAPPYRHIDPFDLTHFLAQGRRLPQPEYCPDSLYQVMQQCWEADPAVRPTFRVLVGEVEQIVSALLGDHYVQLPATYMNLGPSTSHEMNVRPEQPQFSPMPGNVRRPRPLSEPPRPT

On to `COCCNC(=O)[C@@H]1C[C@H](n2cc(-c3cnc(N)c(-c4cc5c(Cl)ccc(F)c5cn4)c3)cn2)CN1` [Example 74, (2S,4S)-4-{4-[6-Amino-5-(5-chloro-8-fluoroisoquinolin-3-yl)-pyridin-3-yl]-pyrazol-1-yl}-pyrrolidine-2-carboxylic acid (2-methoxyethyl)-amide], for which the IC50 in test [1] and in test [2] was 1000 to 20000 nM in each case.

Take `Nc1ncc(-c2ccsc2)cc1-c1cc2c(Cl)ccc(F)c2cn1` [Example 76, 3-(5-Chloro-8-fluoroisoquinolin-3-yl)-5-thiophen-3-ylpyridin-2-amine]: the IC50 in test [1] and in test [2] was > 20000 nM throughout.

In the case of `Nc1ncc(-c2ccccc2)cc1-c1cc2c(Cl)ccc(F)c2cn1` [Example 77, 3-(5-Chloro-8-fluoroisoquinolin-3-yl)-5-phenylpyridin-2-amine], the IC50 in test [1] and in test [2] was > 20000 nM throughout.

On to `Nc1ncc(-c2cccnc2)cc1-c1cc2c(Cl)ccc(F)c2cn1` [Example 78, 5-(5-Chloro-8-fluoroisoquinolin-3-yl)-3,3′-bipyridin-6-amine], for which the IC50 in test [1] and in test [2] was 1000 to 20000 nM in each case.

For `Nc1ncc(-c2ccncc2)cc1-c1cc2c(Cl)ccc(F)c2cn1` [Example 79, 5-(5-Chloro-8-fluoroisoquinolin-3-yl)-3,4′-bipyridin-6-amine], the IC50 in test [1] and in test [2] was 1000 to 20000 nM each time.

`CC(C)(C)OC(=O)N1CC=C(c2cnc(N)c(-c3cc4c(Cl)ccc(F)c4cn3)c2)CC1` [Example 80]: the IC50 in test [1] and in test [2] was 1000 to 20000 nM each time.

For `Nc1ccc(-c2cnc(N)c(-c3cc4c(Cl)ccc(F)c4cn3)c2)cn1` [Example 81, 5-(5-Chloro-8-fluoroisoquinolin-3-yl)-3,3′-bipyridine-6,6′-diamine], the IC50 in test [1] and in test [2] was 1000 to 20000 nM in each case.

Take `CC(=O)Nc1ccc(-c2cnc(N)c(-c3cc4c(Cl)ccc(F)c4cn3)c2)cc1` [Example 82, N-4-[6-Amino-5-(5-chloro-8-fluoroisoquinolin-3-yl)pyridin-3-yl]phenylacetamide]: the values for the IC50 in test [1] and in test [2] were > 20000 nM and 1000 to 20000 nM, respectively.

Take `CCOC(=O)COc1ccc(-c2cnc(N)c(-c3cc4c(Cl)ccc(F)c4cn3)c2)cc1` [Example 83, Ethyl-[4-(6-amino-5-(5-chloro-8-fluoroisoquinolin-3-yl)pyridin-3-yl)phenoxy]acetate]: the IC50 in test [1] and in test [2] was 1000 to 20000 nM each time.

Regarding `Nc1ncc(-c2ccc(O)nc2)cc1-c1cc2c(Cl)ccc(F)c2cn1` [Example 84, 6′-Amino-5′-(5-chloro-8-fluoroisoquinolin-3-yl)-3,3′-bipyridin-6-ol], the IC50 in test [1] and in test [2] was 1000 to 20000 nM each time.

On to `Nc1ncc(-c2ccoc2)cc1-c1cc2c(Cl)ccc(F)c2cn1` [Example 85, 3-(5-Chloro-8-fluoroisoquinolin-3-yl)-5-furan-3-ylpyridin-2-amine], for which the IC50 (commonly the concentration at which inhibition is half-maximal) in test [1] is > 20000 nM; in test [2] it was 1000 to 20000 nM.

For `Nc1ncc(-c2ccco2)cc1-c1cc2c(Cl)ccc(F)c2cn1` [Example 86, 3-(5-Chloro-8-fluoroisoquinolin-3-yl)-5-furan-2-ylpyridin-2-amine], the IC50 in test [1] is > 20000 nM; in test [2], 1000 to 20000 nM.

In the case of `Nc1ncc(-c2cn[nH]c2)cc1-c1cc2c(Cl)ccc(F)c2cn1` [Example 87, 3-(5-Chloro-8-fluoroisoquinolin-3-yl)-5-(1H-pyrazol-4-yl)pyridin-2-amine], the IC50 in test [1] and in test [2] was 1000 to 20000 nM in each case.

With `Nc1ncc(-c2ccc(NCCN3CCOCC3)nc2)cc1-c1cc2c(Cl)ccc(F)c2cn1` [Example 88, 3-(5-Chloro-8-fluoroisoquinolin-3-yl)-5-N6′-(2-morpholin-4-ylethyl)-3,3′-bipyridine-6,6′-diamine], the IC50 in test [1] and in test [2] was 1000 to 20000 nM in each case.

As for `Nc1ncc(-c2cc3ccccc3[nH]2)cc1-c1cc2c(Cl)ccc(F)c2cn1` [Example 89, 3-(5-Chloro-8-fluoroisoquinolin-3-yl)-5-(1H-indol-2-yl)pyridin-2-amine], the IC50 in test [1] and in test [2] was 1000 to 20000 nM throughout.

Consider `COc1ccc(Cl)c2cc(-c3cc(-c4ccc(C(=O)O)cc4)cnc3N)ncc12` [Example 90, 4-[6-Amino-5-(5-chloro-8-methoxyisoquinolin-3-yl)-pyridin-3-yl]benzoic acid], for which the IC50 in test [1] and in test [2] was 100 to 1000 nM each time.

As to `COc1ccc(Cl)c2cc(-c3cc(-c4cccc(C(=O)O)c4)cnc3N)ncc12` [Example 91, 3-[6-Amino-5-(5-chloro-8-methoxyisoquinolin-3-yl)-pyridin-3-yl]benzoic acid], the IC50 in test [1] and in test [2] was > 20000 nM in each case.

Take `Nc1ncc(-c2cnn(C3CCNCC3)c2)cc1-c1cc2ccccc2o1` [Example 92, 3-Benzofuran-2-yl-5-(1-piperidin-4-yl-1H-pyrazol-4-yl)-pyridin-2-ylamine dihydrochloride]: the IC50 in test [1] lay within 1000 to 20000 nM; in test [2], 100 to 1000 nM.

For `Nc1ncc(-c2cnn(C3CCNCC3)c2)cc1-c1oc2ccccc2c1Cl` [Example 93, 3-(3-Chlorobenzofuran-2-yl)-5-(1-piperidin-4-yl-1H-pyrazol-4-yl)-pyridin-2-ylamine dihydrochloride], the IC50 in test [1] and in test [2] was 100 to 1000 nM each time.

Turning to `Cc1c(-c2cc(-c3cnn(C4CCNCC4)c3)cnc2N)oc2ccccc12` [Example 94, 3-(3-Methylbenzofuran-2-yl)-5-(1-piperidin-4-yl-1H-pyrazol-4-yl)pyridin-2-ylamine bishydrochloride], the results for the IC50 in test [1] and in test [2] were 1000 to 20000 nM and 100 to 1000 nM, respectively.

As for `Nc1ncc(-c2cnn(C3CCNCC3)c2)cc1-c1oc2ccccc2c1Br` [Example 95, 3-(3-Bromobenzofuran-2-yl)-5-(1-piperidin-4-yl-1H-pyrazol-4-yl)-pyridin-2-ylamine trifluoroacetate], the IC50 in test [1] and in test [2] was 1000 to 20000 nM throughout.

For `Nc1ncc(-c2cnn(C3CCNCC3)c2)cc1-c1oc2ccccc2c1-c1ccccc1` [Example 96, 3-(3-Phenylbenzofuran-2-yl)-5-(1-piperidin-4-yl-1H-pyrazol-4-yl)pyridine-2-ylamine], the IC50 in test [1] and in test [2] was 1000 to 20000 nM in each case.

Consider `Nc1ncc(-c2cnn(C3CCNCC3)c2)cc1-c1oc2ccccc2c1-c1cccc(Cl)c1F` [Example 97, 3-[3-(3-Chloro-2-fluorophenyl)benzofuran-2-yl]-5-(1-piperidin-4-yl-1H-pyrazol-4-yl)pyridine-2-ylamine], for which the IC50 lay within 1000 to 20000 nM in test [1] and 100 to 1000 nM in test [2].

On to `Nc1ncc(-c2cnn(C3CCNCC3)c2)cc1-c1oc2ccccc2c1-c1cccc(F)c1F` [Example 98, 3-[3-(2,3-Difluorophenyl)benzofuran-2-yl]-5-(1-piperidin-4-yl-1H-pyrazol-4-yl)pyridine-2-ylamine], for which the IC50 in test [1] lay in the range of 1000 to 20000 nM; in test [2] it was 100 to 1000 nM.

On to `Nc1ncc(-c2cnn([C@@H]3CCNC3)c2)cc1-c1cc2ccccc2o1` [Example 99, 3-Benzofuran-2-yl-5-((R)-1-pyrrolidin-3-yl-1H-pyrazol-4-yl)-pyridin-2-ylamine dihydrochloride], for which the IC50 in test [1] and in test [2] was 100 to 1000 nM each time.

`Nc1ncc(-c2cnn([C@H]3CCNC3)c2)cc1-c1cc2ccccc2o1` [Example 100, 3-Benzofuran-2-yl-5-((S)-1-pyrrolidin-3-yl-1H-pyrazol-4-yl)-pyridin-2-ylamine dihydrochloride]: the half-maximal inhibitory concentration (IC50) in test [1] and in test [2] was 100 to 1000 nM throughout.

In the case of `Cn1cc(-c2cnc(N)c(-c3cc4ccccc4o3)c2)cn1` [Example 101, 3-Benzofuran-2-yl-5-(1-methyl-1H-pyrazol-4-yl)-pyridin-2-ylamine bis-hydrochloride], the IC50 in test [1] and in test [2] was 1000 to 20000 nM throughout.

With `CC(C)n1cc(-c2cnc(N)c(-c3cc4ccccc4o3)c2)cn1` [Example 102, 3-Benzofuran-2-yl-5-(1-isopropyl-1H-pyrazol-4-yl)-pyridin-2-ylamine bis-hydrochloride], the 50% inhibitory concentration (IC50) in test [1] fell in the range of 1000 to 20000 nM; in test [2] it was 100 to 1000 nM.

As to `CN(C)C(=O)N1CCC(n2cc(-c3cnc(N)c(-c4cc5ccccc5o4)c3)cn2)CC1` [Example 103, 4-[4-(6-Amino-5-benzofuran-2-yl-pyridin-3-yl)-pyrazol-1-yl]-piperidine-1-carboxylic acid dimethylamide bis-hydrochloride], the results for the IC50 in test [1] and in test [2] were 1000 to 20000 nM and 100 to 1000 nM, respectively.

Turning to `Nc1ncc(-c2cnn(C3CCNCC3)c2)cc1-c1cc2ccccc2s1` [Example 104, 3-Benzo[b]thiophen-2-yl-5-(1-piperidin-4-yl-1H-pyrazol-4-yl)-pyridin-2-ylamine bishydrochloride], the IC50 in test [1] is 100 to 1000 nM; in test [2], ≤ 100 nM.

`Cc1c(-c2cc(-c3cnn(C4CCNCC4)c3)cnc2N)sc2ccccc12` [Example 105, 3-(3-Methylbenzo[b]thiophen-2-yl)-5-(1-piperidin-4-yl-1H-pyrazol-4-yl)pyridin-2-ylamine bishydrochloride]: the IC50 in test [1] and in test [2] was 1000 to 20000 nM throughout.

With `Nc1ncc(-c2cnn(C3CCNCC3)c2)cc1-c1nc2ccccc2o1` [Example 106, 3-Benzoxazol-2-yl-5-(1-piperidin-4-yl-1H-pyrazol-4-yl)-pyridin-2-ylamine dihydrochloride], the IC50 in test [1] is 100 to 1000 nM; in test [2], ≤ 100 nM.

On to `Nc1ncc(-c2cnn(C3CCNCC3)c2)cc1-c1nc2ccccc2s1` [Example 107, 3-Benzothiazol-2-yl-5-(1-piperidin-4-yl-1H-pyrazol-4-yl)-pyridin-2-ylamine dihydrochloride], for which the IC50 in test [1] and in test [2] was ≤ 100 nM in each case.

The values are drawn from US8178668B2, “2-aminopyridine kinase inhibitors” (OSI Pharmaceuticals, LLC, priority 2008, dated 2012).
